For this assay, the target named is T1, FtsZ (SaFtsZ) (Staphylococcus aureus, UniProt P0A031).
T1 construct: 6× His-FtsZ (N-terminal 6× His tag)
T1 sequence (P0A031 1-390): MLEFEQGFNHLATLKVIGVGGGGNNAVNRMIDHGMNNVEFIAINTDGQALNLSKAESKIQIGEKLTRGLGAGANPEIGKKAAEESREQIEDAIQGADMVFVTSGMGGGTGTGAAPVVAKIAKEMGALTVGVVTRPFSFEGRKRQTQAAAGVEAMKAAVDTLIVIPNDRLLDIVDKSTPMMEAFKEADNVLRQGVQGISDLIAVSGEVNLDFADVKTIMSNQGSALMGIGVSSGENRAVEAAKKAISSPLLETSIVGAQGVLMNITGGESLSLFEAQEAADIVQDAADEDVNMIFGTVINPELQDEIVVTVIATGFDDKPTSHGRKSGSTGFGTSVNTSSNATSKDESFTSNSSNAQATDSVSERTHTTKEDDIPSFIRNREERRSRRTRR
Kind of assay: isothermal titration calorimetry; also GTPase inhibition and […]° light scattering. Type of assay: binding. In general terms: In ITC the heat of successive injections is recorded.

Structures are written as SMILES.

As for `Cc1cc2c(C(C)C)c(O)c(O)c(C=O)c2c(O)c1-c1c(C)cc2c(C(C)C)c(O)c(O)c(C=O)c2c1O` [S2303, Gossypol acetate], binding was put at a Kd of 3.6 ± 0.7 µM.
